Numbers after ± are expanded uncertainties.
Assay: refractive index (Na D-line) (dimensionless)
Details: 298.15 K; 101.33 kPa; Liquid; Standard Abbe refractometry

Row | SMILES | refractive index
1 | O=Cc1ccco1 [2-furaldehyde] | 1.52263 ± 0.001
2 | COC(C)(C)C [2-methoxy-2-methylpropane] | 1.36594 ± 0.001
3 | CC(C)=O [acetone] | 1.35553 ± 0.001
4 | O [water] | 1.33249 ± 0.001

Source: the NIST ThermoML archive (doi:10.1021/acs.jced.6b00149)
